These results are taken from ChEMBL document CHEMBL1155332 (Bioorg Med Chem Lett, 2009).

Holding throughout (type): ADME, organism-based
Series [1] in a line: Clearance in iv dosed rat. As to conditions: in vivo.
The nature of series [2]: Bioavailability in […] rat. As to conditions: in vivo.
A short description of series [3]: Cmax in squirrel monkey at 2 mg/kg. Details: dose 2 mg/kg. As to conditions: saimiri, in vivo.
Series [4] can be described thus: Cmax in squirrel monkey at 10 mg/kg. Details: dose 10 mg/kg. As to conditions: saimiri, in vivo.
Series [5] can be described thus: Cmax in squirrel monkey at 0.4 mg/kg. Details: dose 0.4 mg/kg. The conditions noted are these: saimiri, in vivo.

Structures are written as SMILES.

For `CC(C)(c1cc(-c2cccc(CC(c3ccc(S(C)(=O)=O)cc3)S(C)(=O)=O)c2)c2ncccc2c1)S(C)(=O)=O` (centres undefined), the clearance (as a rule, a measure of how efficiently the substance is removed, as volume per time) in series [1] is 76 mL/min/kg. Also, in series [2], the bioavailability (commonly dose-corrected exposure relative to a reference, in per cent) came to 1%.

For the molecule `CC(C)(c1cc(-c2cccc(CC(F)(c3ccc(S(C)(=O)=O)cc3)S(=O)(=O)C3CC3)c2)c2ncccc2c1)S(C)(=O)=O` (single isomer, unassigned; Enantio B), the Cmax (as a rule, the maximum level reached in the sampled fluid or tissue) in series [3] turned out to be 1900 nM. The same molecule displayed a clearance in series [1] of 3 mL/min/kg. In series [2], this molecule yielded a bioavailability of 99%.

Molecule `COP(=O)(OC)C(Cc1cccc(-c2cc(C(C)(C)S(C)(=O)=O)cc3cccnc23)c1)c1ccc(S(C)(=O)=O)cc1` (centres undefined) gave a clearance in series [1] of 48 mL/min/kg. In series [2], this molecule showed a bioavailability of 3%.

As for `Cc1noc(/C(=C/c2cccc(-c3cc(C(C)(C)S(C)(=O)=O)cc4cccnc34)c2)c2ccc(S(C)(=O)=O)cc2)n1`, the clearance in series [1] came to 7 mL/min/kg. Further, in series [2], the bioavailability is 100%. Moreover, in series [4], the Cmax came to 3800 nM.

The molecule `CC(C)(c1cc(-c2cccc(CC(F)(c3ccc(S(C)(=O)=O)cc3)S(=O)(=O)C3CC3)c2)c2ncccc2c1)S(C)(=O)=O.Cl` (single isomer, unassigned) yielded a clearance in series [1] of 9 mL/min/kg. Further, the bioavailability in series [2] turned out to be 36%.

`CC(C)(c1cc(-c2cccc(CC(CO)c3ccc(S(C)(=O)=O)cc3)c2)c2ncccc2c1)S(C)(=O)=O` (centres undefined): the clearance in series [1] is 51 mL/min/kg. Also, the bioavailability in series [2] stood at 9%.

Turning to `COP(=O)(OC)C(F)(Cc1cccc(-c2cc(C(C)(C)S(C)(=O)=O)cc3cccnc23)c1)c1ccc(S(C)(=O)=O)cc1` (centres undefined), the clearance in series [1] came to 177 mL/min/kg. The bioavailability in series [2] stood at 51%.

`CC(C)(c1cc(-c2cccc(CC(F)(c3ccc(S(C)(=O)=O)cc3)S(C)(=O)=O)c2)c2ncccc2c1)S(C)(=O)=O` (centres undefined): the clearance in series [1] was 9 mL/min/kg. Besides, the bioavailability in series [2] amounted to 53%.

As for `CC(C)(c1cc(-c2cccc(CC(F)(c3ccc(S(C)(=O)=O)cc3)C(O)(C3CC3)C3CC3)c2)c2ncccc2c1)S(C)(=O)=O` (single isomer, unassigned; Enantio B), the concentration in series [5] peaked (Cmax) at 100 nM. In series [1], this molecule yielded a clearance of 38 mL/min/kg. For the same molecule, the bioavailability in series [2] was 99%.

In series [1], `CC(C)(O)C(Cc1cccc(-c2cc(C(C)(C)S(C)(=O)=O)cc3cccnc23)c1)c1ccc(S(C)(=O)=O)cc1` (centres undefined) displayed a clearance of 50 mL/min/kg. For the same molecule, the bioavailability in series [2] was determined as 21%.

The molecule `CC(C)(O)C(F)(Cc1cccc(-c2cc(C(C)(C)S(C)(=O)=O)cc3cccnc23)c1)c1ccc(S(C)(=O)=O)cc1` (centres undefined) came in with a clearance in series [1] of 17 mL/min/kg. The bioavailability in series [2] was 84%.

`CC(C)(c1cc(-c2cccc(CC(F)(c3ccc(S(C)(=O)=O)cc3)C(O)(C3CC3)C3CC3)c2)c2ncccc2c1)S(C)(=O)=O.CCl` (centres undefined): the clearance in series [1] came out at 8 mL/min/kg. In series [2], this molecule had a bioavailability of 99%.

In series [1], `CC(C)(c1cc(-c2cccc(CC(F)(c3ccc(S(C)(=O)=O)cc3)C(O)(C3CC3)C3CC3)c2)c2ncccc2c1)S(C)(=O)=O.Cl` (single isomer, unassigned) had a clearance of 11 mL/min/kg. The same molecule showed a bioavailability in series [2] of 69%.
